# Test results from ChEMBL document CHEMBL5113378, “Role of basic aminoalkyl chains in the lead optimization of Indoloquinoline alkaloids” (Eur J Med Chem, 2022).
# Key:
# [1] = Selectivity index, ratio of IC50 for rat L6 cells to IC50 for Plasmodium falciparum K1; format: toxicity; details: read-out: Ratio IC50
# Hemozoin [2] = test: Inhibition of beta-hematin formation
# [3] = target: Telomerase reverse transcriptase (Homo sapiens, UniProt O14746); test: Inhibition of telomerase derived from human K562 cell extract incubated for 30 mins by TRAP assay; format: cell-free
# Plasmodium falciparum [4] = test: Antimalarial activity against chloroquine/mefloquine resistant Plasmodium falciparum clinical isolates assessed as parasite growth inhibition incubated for 24 hrs by microtechnique method; format: functional, organism-based
# P388 = test: Antiproliferative activity against mouse P388 cells assessed as cell growth inhibition by measuring [3H]TdR uptake incubated for 3 days; format: functional, cell-based
# [5] = Antiproliferative activity against […] LLTC cells assessed as cell growth inhibition incubated for 4 days by sulphorhodamine assay; format: functional, cell-based; details: LLTC cell line, 96 h
# Jurkat = test: Antiproliferative activity against human Jurkat cells assessed as cell growth inhibition incubated for 4 days by sulphorhodamine assay; format: functional, cell-based; details: 96 h
# [6] = Selectivity index, ratio of CC50 for rat L6 cells to IC50 for Plasmodium falciparum K1 […]; format: toxicity, cell-based; details: read-out: Ratio CC50/IC50
# Plasmodium falciparum [7] = test: Antimalarial activity against Plasmodium falciparum K1 […] assessed as parasite growth inhibition; format: functional, organism-based
# MOLT-3 = test: Antiproliferative activity against human MOLT-3 cells assessed as cell growth inhibition; format: functional, cell-based
# Plasmodium falciparum [8] = test: Antimalarial activity against Plasmodium falciparum INDO assessed as parasite growth inhibition incubated for 48 hrs by SYBR green dye based fluorescence assay; format: functional, organism-based
# Plasmodium falciparum [9] = test: Antimalarial activity against Plasmodium falciparum Dd2 assessed as parasite growth inhibition incubated for 48 hrs by SYBR green dye based fluorescence assay; format: functional, organism-based; details: Dd2, 48 h
# Plasmodium berghei [10] = test: Antimalarial activity against Plasmodium berghei ANKA infected in BALB/c mouse assessed as parasite growth inhibition at 50 mg/kg, po administered for 4 consecutive days measured for 7 to 13 days by geimsa dye based microscopy relative to control; format: functional; design: scale not given: the % may be the effect or the level left; details: time 7-13 day
# Hemozoin [11] = test: Inhibition of detergent-mediated beta-hematin formation incubated for 6 hrs by multiwell plate reader analysis
# [12] = Selectivity index, ratio of CC50 for human Huh-7 cells to IC50 for Plasmodium falciparum 3D7; format: toxicity; details: read-out: Ratio CC50/IC50
# Plasmodium falciparum [13] = test: Antimalarial activity against Plasmodium falciparum 3D7 assessed as parasite growth inhibition incubated for 48 hrs by SYBR green dye based fluorescence assay; format: functional, organism-based; details: 3D7, 48 h
# HCT-116 = test: Antiproliferative activity against human HCT-116 cells assessed as cell growth inhibition; format: functional, cell-based
# A2780 [14] = test: Cytotoxicity against drug resistant human A2780 cells assessed as cell growth inhibition; format: functional, cell-based
# CH1 [15] = test: Cytotoxicity against drug resistant human CH1 cells assessed as cell growth inhibition; format: functional, cell-based
# SK-OV-3 = test: Cytotoxicity against human SK-OV-3 cells assessed as cell growth inhibition; format: functional, cell-based
# A2780 [16] = test: Cytotoxicity against human A2780 cells assessed as cell growth inhibition; format: functional, cell-based
# Plasmodium falciparum [17] = test: Antimalarial activity against multi-drug resistant Plasmodium falciparum K1 assessed as parasite growth inhibition by microdilution method; format: functional, organism-based
# CH1 [18] = test: Cytotoxicity against human CH1 cells assessed as cell growth inhibition; format: functional, cell-based
# Trypanosoma brucei = test: Antitrypanosomal activity against Trypanosoma brucei assessed as parasite growth inhibition; format: functional, organism-based
# Plasmodium falciparum [19] = test: Antimalarial activity against chloroquine/pyrimethamine resistant Plasmodium falciparum K1 assessed as parasite growth inhibition by measuring [3H]-hypoxanthine incubated for 24 hrs; format: functional, organism-based
# Plasmodium berghei [20] = test: Antimalarial activity against erythrocytic Plasmodium berghei ANKA infected in NMRI mouse assessed as reduction in parasitemia at 40 mg/kg, ip administered for 4 consecutive days measured after 24 hrs post last dose by FACS analysis relative to control; format: functional; design: scale not given: the % may be the effect or the level left
# Plasmodium falciparum [21] = test: Antimalarial activity against erythrocytic Plasmodium falciparum NF54 assessed as parasite growth inhibition incubated for 48 hrs by [3H]-hypoxanthine incorporation assay; format: functional, organism-based
# [22] = Resistance index, ratio of IC50 for erythrocytic Plasmodium falciparum K1 to IC50 for erythrocytic Plasmodium falciparum NF54
# Hemozoin [23] = test: Inhibition of detergent-mediated beta-hematin formation incubated for 5 to 6 hrs by absorbance based assay
# [24] = Cytotoxicity against rat L6 cells assessed as cell growth inhibition incubated for 70 hrs by alamar blue staining based microscopy; format: toxicity
# Plasmodium falciparum [25] = test: Antimalarial activity against erythrocytic chloroquine/pyrimethamine resistant Plasmodium falciparum K1 assessed as parasite growth inhibition incubated for 48 hrs by [3H]-hypoxanthine incorporation assay; format: functional, organism-based
# [26] = Selectivity index, ratio of IC50 for rat L6 cells to IC50 for erythrocytic Plasmodium falciparum NF54; format: toxicity; details: read-out: Ratio IC50
# [27] = Selectivity index, ratio of IC50 for rat L6 cells to IC50 for erythrocytic Plasmodium falciparum K1; format: toxicity; details: read-out: Ratio IC50
# Plasmodium falciparum [28] = test: Antimalarial activity against Plasmodium falciparum K1 assessed as parasite growth inhibition; format: functional, organism-based
# Plasmodium berghei [29] = test: Antimalarial activity against Plasmodium berghei NK65 infected in Webster Swiss mouse assessed as parasite growth inhibition at 50 mg/kg/day, po for 5 days by geimsa dye based microscopy relative to control; format: functional; design: scale not given: the % may be the effect or the level left; details: time 5 day
# SK-HEP1 = test: Antiproliferative activity against human SK-HEP1 cells assessed as cell growth inhibition; format: functional, cell-based
# RPMI-8226 = test: Antiproliferative activity against human RPMI-8226 cells assessed as cell growth inhibition; format: functional
# K562 = test: Antiproliferative activity against human K562 cells assessed as cell growth inhibition; format: functional
# MOLT-4 = test: Antiproliferative activity against human MOLT-4 cells assessed as cell growth inhibition; format: functional
# [30] = Selectivity index, ratio of IC50 for rat L6 cells to IC50 for Plasmodium falciparum NF54; format: toxicity; details: read-out: Ratio IC50
# [31] = Selectivity index, ratio of IC50 for human MRC5 to IC50 for Plasmodium falciparum Ghana; format: toxicity; details: MRC5 cells, read-out: Ratio IC50
# DNA = test: Binding affinity to DNA (unknown origin) assessed as DNA intercalation by measuring amount of methyl green by spectrophotometry; format: nucleic-acid assay, Homo sapiens
# Chain of Telomerase reverse transcriptase (O14746 whole entry): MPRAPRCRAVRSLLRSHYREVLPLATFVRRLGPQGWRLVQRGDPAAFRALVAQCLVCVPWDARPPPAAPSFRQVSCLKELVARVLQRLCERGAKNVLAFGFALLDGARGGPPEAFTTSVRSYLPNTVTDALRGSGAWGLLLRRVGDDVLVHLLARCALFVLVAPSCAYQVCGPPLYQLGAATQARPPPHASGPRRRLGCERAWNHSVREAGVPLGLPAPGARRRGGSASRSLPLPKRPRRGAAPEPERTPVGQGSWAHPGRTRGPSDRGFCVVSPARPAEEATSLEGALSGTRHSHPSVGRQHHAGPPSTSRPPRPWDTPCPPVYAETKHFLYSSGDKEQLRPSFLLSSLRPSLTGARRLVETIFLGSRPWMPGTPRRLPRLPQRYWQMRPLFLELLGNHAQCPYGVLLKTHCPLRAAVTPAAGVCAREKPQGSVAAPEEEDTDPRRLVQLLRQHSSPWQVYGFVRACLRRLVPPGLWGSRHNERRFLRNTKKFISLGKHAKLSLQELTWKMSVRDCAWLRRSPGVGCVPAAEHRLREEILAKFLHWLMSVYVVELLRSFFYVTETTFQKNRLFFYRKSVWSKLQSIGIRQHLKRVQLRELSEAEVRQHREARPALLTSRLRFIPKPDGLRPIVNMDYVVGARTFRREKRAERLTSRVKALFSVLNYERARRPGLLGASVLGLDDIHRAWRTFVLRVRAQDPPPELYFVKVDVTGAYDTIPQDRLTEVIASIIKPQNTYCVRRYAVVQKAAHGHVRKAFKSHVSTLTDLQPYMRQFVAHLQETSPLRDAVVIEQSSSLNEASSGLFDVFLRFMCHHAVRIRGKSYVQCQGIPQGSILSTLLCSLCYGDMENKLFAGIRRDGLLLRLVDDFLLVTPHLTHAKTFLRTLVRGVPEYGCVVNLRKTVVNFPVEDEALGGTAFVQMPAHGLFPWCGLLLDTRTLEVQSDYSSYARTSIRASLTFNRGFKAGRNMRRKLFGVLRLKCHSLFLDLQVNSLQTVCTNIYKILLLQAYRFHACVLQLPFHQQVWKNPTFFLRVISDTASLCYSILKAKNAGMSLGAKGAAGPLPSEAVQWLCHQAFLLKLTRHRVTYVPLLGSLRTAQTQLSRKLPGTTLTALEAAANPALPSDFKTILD
structure (smiles),measurement,setting,value
COC(=O)c1ccc2nc3n(C)c4ccccc4c(NCCCN)c-3c2c1,selectivity ratio,[1],7.2
same,IC50,Hemozoin [2],48.9 µM
CN(C)CCNc1c2ccccc2nc2c1[nH]c1ccccc12,IC50,[3],1.12 µM
COc1cc2c(cc1CN(C)CCCN(C)C)[nH]c1c3ccc(Cl)cc3ncc21,IC50,Plasmodium falciparum [4],0.000192 µM
Cc1cccc2c1c1nc3c(C(=O)NCCN(C)C)cccc3cc1n2C,IC50,P388,0.02 µM
same,IC50,[5],0.018 µM
same,IC50,Jurkat,0.055 µM
COc1ccc2[nH]c3c4ccc(Cl)cc4ncc3c2c1,IC50,Plasmodium falciparum [4],0.002 µM
Cn1cc2c3ccccc3nc-2c2ccccc21 [ISOCRYPTOLEPINE],selectivity ratio,[6],1.8
same,IC50,Plasmodium falciparum [7],0.78 µM
same,IC50,MOLT-3,0.73 µM
O=C(NCCN1CCCCC1)c1c2cc(Br)ccc2nc2c1[nH]c1ccccc12,IC50,Plasmodium falciparum [8],5 µM
same,IC50,Plasmodium falciparum [9],6.3 µM
same,Activity,Plasmodium berghei [10],27%
same,IC50,Hemozoin [11],840 µM
same,selectivity ratio,[12],46.9
same,IC50,Plasmodium falciparum [13],1.3 µM
CN(CCCNc1c2ccccc2nc2c1[nH]c1ccccc12)C(=O)c1cccc(B(O)O)c1,IC50,HCT-116,15.7 µM
c1ccc2nc3c(cc2c1)[nH]c1ccccc13 [QUINDOLINE],IC50,A2780 [14],24.5 µM
same,IC50,CH1 [15],30 µM
same,IC50,[3],> 138 µM
same,IC50,SK-OV-3,66 µM
same,IC50,A2780 [16],21.5 µM
same,IC50,Plasmodium falciparum [17],> 229 µM
same,IC50,CH1 [18],15.5 µM
CN(C)c1ccc(C2SCC(=O)N2CCCNc2c3c4ccccc4nc-3n(C)c3ccccc23)cc1 (stereo not given),IC50,Trypanosoma brucei,1.37 µM
c1ccc2c(NCCN3CCOCC3)c3[nH]c4ccccc4c3nc2c1,IC50,[3],0.55 µM
COc1cc2c(cc1CN1CCC(N3CCCCC3)CC1)[nH]c1c3ccc(Cl)cc3ncc21,IC50,Plasmodium falciparum [19],0.05 µM
C[C@H]1[C@H](OC(=O)CCC(=O)NCCCNc2c3ccccc3[n+](C)c3[nH]c4ccccc4c23)O[C@@H]2O[C@@]3(C)CC[C@H]4[C@H](C)CC[C@@H]1[C@@]24OO3,Activity,Plasmodium berghei [20],89.6%
same,IC50,Plasmodium falciparum [21],0.00045 µM
same,Ratio IC50,[22],0.93
same,IC50,Hemozoin [23],222 µM
same,IC50 at 70 h,[24],1.53 µM
same,IC50,Plasmodium falciparum [25],0.00042 µM
same,selectivity ratio,[26],3400
same,selectivity ratio,[27],3640
COc1cc2c(cc1CN1CCN(C)CC1)[nH]c1c3ccc(Cl)cc3ncc21,IC50,Plasmodium falciparum [28],0.0024 µM
CN(C)CCc1ccc2nc3c4ccccc4n(CCN(C)C)c3cc2c1,IC50,A2780 [14],10.5 µM
same,IC50,CH1 [15],12.5 µM
same,IC50,A2780 [16],12.5 µM
same,IC50,CH1 [18],8.4 µM
C[n+]1c2ccccc2c(NC2CCNCC2)c2[nH]c3ccccc3c21,Activity,Plasmodium berghei [29],55%
O=C(NCCNc1c2ccccc2nc2c1[nH]c1ccccc12)c1ccccc1,IC50,HCT-116,0.8 µM
c1ccc2c(c1)nc(NCCCNCCCNc1nc3ccccc3c3[nH]c4ccccc4c13)c1c3ccccc3[nH]c21,IC50,SK-HEP1,0.09 µM
Cn1c2nc3ccccc3c-2c(Nc2ccccc2)c2ccccc21,GI50,RPMI-8226,1.08 µM
same,GI50,K562,1.84 µM
same,GI50,MOLT-4,0.32 µM
Cn1c2nc3ccccc3c-2cc2ccccc21 [NEOCRYPTOLEPINE],selectivity ratio,[30],2
same,selectivity ratio,[31],0.4
same,selectivity ratio,[1],1.9
same,IC50,Hemozoin [2],5.97 µM
same,IC50,DNA,93 µM
OCCCNc1c2ccccc2nc2c1[nH]c1ccccc12,IC50,[3],1.55 µM
Cn1c2nc3ccccc3c-2c(NCCCN)c2ccccc21,selectivity ratio,[30],3.5
CNCCCNc1c2ccccc2nc2c1[nH]c1ccccc12,IC50,HCT-116,0.3 µM
